Reference: ChEMBL document CHEMBL5727906, “Adenosine A3 receptor modulators” (2020)

What was measured:
Adenosine receptor A3 = biological target: T1, Adenosine receptor A3 (Homo sapiens, UniProt P0DMS8); assay: Competition Radioligand Binding Assay: A3 Adenosine Receptor:Competitive assays were carried out by incubation of membranes from human A3 receptors transfected to CHO cells, [3H]-NECA, buffer (20 mM HEPES (pH 7.4), 100 mM NaCl, 10 mM MgCl2, 2 units/ml adenosine deaminase), and unlabelled ligand in a total volume of 0.2 ml for 60 min at 25° C. R-PIA was used to determine nonspecific binding. It was filtered over Schleicher & Schuell GF/52 (presoaked with 0.5% polyethyleneimine) in a Brandel cell harvester. The unbound radioligand was removed with 3×250 μl of 20 mM HEPES (pH 7.4), 100 mM NaCl, 10 mM MgCl2.
T1 sequence (P0DMS8 whole entry): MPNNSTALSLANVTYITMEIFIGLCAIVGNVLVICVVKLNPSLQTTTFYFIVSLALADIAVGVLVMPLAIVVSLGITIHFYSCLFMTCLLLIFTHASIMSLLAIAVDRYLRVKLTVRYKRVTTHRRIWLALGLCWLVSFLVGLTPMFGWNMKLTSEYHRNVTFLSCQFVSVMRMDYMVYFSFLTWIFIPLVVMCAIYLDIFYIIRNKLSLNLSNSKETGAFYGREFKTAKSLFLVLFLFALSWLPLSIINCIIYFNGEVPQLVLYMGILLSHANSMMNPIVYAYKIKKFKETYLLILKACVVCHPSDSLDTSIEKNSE

Adenosine receptor A2a = Adenosine receptor A2a (Homo sapiens, UniProt P29274); assay: Competition Radioligand Binding Assay: A2A Adenosine Receptor: Competitive assays were carried out by incubation of membranes from human A2A receptors transfected to HeLa cells, [3H]-ZM241385, buffer (Tris-HCl 50 mM (pH=7.4), 10 mM MgCl2, EDTA 1 mM and 2 units/ml adenosine deaminase), and unlabelled ligand in a total volume of 0.2 ml for 60 min at 25° C. NECA was used to determine nonspecific binding. It was filtered over Schleicher & Schuell GF/52 (presoaked with 0.5% polyethyleneimine) in a Brandel cell harvester. The unbound radioligand was removed with 3×250 μl of 20 mM Tris-HCl 50 mM (pH=7.4), 10 mM MgCl2, EDTA 1 mM.
Sequence of Adenosine receptor A2a (P29274 whole entry): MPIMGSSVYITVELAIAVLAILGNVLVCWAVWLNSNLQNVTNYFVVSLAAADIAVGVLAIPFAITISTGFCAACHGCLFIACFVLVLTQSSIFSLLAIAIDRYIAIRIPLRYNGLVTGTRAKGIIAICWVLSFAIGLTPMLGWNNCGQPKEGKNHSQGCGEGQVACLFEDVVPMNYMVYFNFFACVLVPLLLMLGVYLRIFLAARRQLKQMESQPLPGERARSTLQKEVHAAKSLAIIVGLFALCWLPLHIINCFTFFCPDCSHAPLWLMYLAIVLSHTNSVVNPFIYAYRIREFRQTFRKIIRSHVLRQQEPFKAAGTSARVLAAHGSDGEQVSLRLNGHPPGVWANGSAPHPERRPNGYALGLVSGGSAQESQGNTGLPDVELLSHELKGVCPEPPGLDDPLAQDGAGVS

Adenosine receptor A2b = biological target: T2, Adenosine receptor A2b (Homo sapiens, UniProt P29275); assay: Competition Radioligand Binding Assay: A2B Adenosine Receptor: The binding assay for adenosine A2B receptor subtype was carried out on human recombinant source (HEK-293 cells) and [3H]DPCPX as radioligand.
T2 sequence (P29275 whole entry): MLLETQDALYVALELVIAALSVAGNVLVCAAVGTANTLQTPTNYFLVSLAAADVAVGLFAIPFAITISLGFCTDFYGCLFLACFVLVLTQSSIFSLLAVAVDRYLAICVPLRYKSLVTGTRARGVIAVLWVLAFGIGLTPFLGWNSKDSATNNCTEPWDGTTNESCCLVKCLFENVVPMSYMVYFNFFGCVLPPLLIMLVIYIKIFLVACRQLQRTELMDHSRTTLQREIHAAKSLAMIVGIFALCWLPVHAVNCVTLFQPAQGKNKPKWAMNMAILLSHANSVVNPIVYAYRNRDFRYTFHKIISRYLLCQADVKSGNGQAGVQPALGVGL

Adenosine receptor A1 = biological target: T3, Adenosine receptor A1 (Homo sapiens, UniProt P30542); assay: Competition Radioligand Binding Assay: Adenosine A1 Receptor: Competition assays were carried out by incubation of human recombinant membranes of adenosine receptors from hA1 receptors transfected to CHO cells, [3H] DPCPX as radioligand, buffer (HEPES 20 mM (pH=7.4), 10 mM MgCl2, 100 mM NaCl, 2 U/mL of deaminase adenosine and non-labelled ligand in a total volume of 0.2 mL for 90 min at 25° C. R-PIA was used to determinate non-specific binding. Filter over Schleicher & Schuell GF/52 (pre-soaked 0.5% polyethylenimine) in a Brandel cell harvester. Unbound radioligand was removed with HEPES 30 mM (3×250 μl), NaCl (100 mM) and MgCl2 (10 mM).
T3 sequence (P30542 whole entry): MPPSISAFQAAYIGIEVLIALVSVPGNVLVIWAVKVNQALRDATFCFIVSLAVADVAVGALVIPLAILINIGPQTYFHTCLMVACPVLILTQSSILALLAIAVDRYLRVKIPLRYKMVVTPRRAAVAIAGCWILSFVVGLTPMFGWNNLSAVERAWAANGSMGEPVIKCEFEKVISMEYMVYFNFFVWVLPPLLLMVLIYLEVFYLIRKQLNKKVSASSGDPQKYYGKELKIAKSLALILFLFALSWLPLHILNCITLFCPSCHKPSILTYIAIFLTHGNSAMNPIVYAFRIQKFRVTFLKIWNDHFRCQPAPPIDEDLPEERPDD

- Ki (Adenosine receptor A3): 47.6 nM
- Ki (Adenosine receptor A2a): > 1000 nM
- Ki (Adenosine receptor A2b): > 1000 nM
- Ki (Adenosine receptor A1): > 1000 nM
Compound: COc1ccc(-c2nc(NC(=O)c3ccc(N4CCC(C(=O)O)CC4)nc3)sc2C#N)cc1
